Assay results: patent US20060069132A1, “Azolecarboxamide herbicides” (priority 2004, published 2006)

Tests used:
bermudagrass = test: Test C pre-/postemergence herbicide test; assay type: in vivo, Cynodon dactylon
Outline: (§1)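 Visual injury scores run from 0 (no effect) to 100 (complete control), assessed relative to untreated controls 12 to 14 days after treatment in the greenhouse. Chemicals were formulated in a non-phytotoxic solvent mixture with surfactant and applied to soil after planting or to emerged plants at the 1- to 4-leaf stage.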

giant foxtail = test: Test C pre-/postemergence herbicide test; assay type: in vivo, Setaria faberi; details: preemergence
Outline: as §1

lambsquarters = test: Test C pre-/postemergence herbicide test; assay type: in vivo, Chenopodium album; details: preemergence
Outline: as §1

morningglory = test: Test C pre-/postemergence herbicide test; assay type: in vivo, Ipomoea coccinea; parameters: key to Plant response rating, Morningglory: 0 = no effect, 100 = complete control; details: preemergence
Outline: as §1

eastern black nightshade = test: Test C pre-/postemergence herbicide test; assay type: in vivo, Solanum ptycanthum; details: preemergence
Outline: as §1

yellow nutsedge = test: Test C pre-/postemergence herbicide test; assay type: in vivo, Cyperus esculentus; details: preemergence
Outline: as §1

common ragweed = test: Test C pre-/postemergence herbicide test; assay type: in vivo, Ambrosia elatior; parameters: key to Plant response rating, Ragweed: 0 = no effect, 100 = complete control; details: preemergence
Outline: as §1

[1] = system: smallflower umbrella sedge; test: Test C flooded paddy test; assay type: in vivo, Cyperus difformis; details: for Plant response rating, Sedge, Umbrella: 500 g ai/ha, visual rating after 12 to 14 days
barnyardgrass = test: Test C flooded paddy test; assay type: in vivo, Echinochloa crus-galli; details: for Plant response rating, Barnyardgrass: 500 g ai/ha, visual rating after 12 to 14 days
Outline: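 Scoring by eye, 12–14 days post-treatment, greenhouse-held plants vs. controls; 0 no effect, 100 complete control. Sprayed at 1–4 leaves (2–18 cm); paddy barnyardgrass at 2 leaves, flooded.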

[2] = 62 g ai/ha, preemergence, scale 0 to 100, 0 no effect, 100 complete control
[3] = 250 g ai/ha, scale 0-100, preemergence
[4] = 125 g ai/ha, scale 0 (no effect) to 100 (complete control), visual, 12 to 14 days
[5] = 500 g ai/ha, scale 0 to 100 (0 no effect, 100 complete control), visual, 12 to 14 days
[6] = 125 g ai/ha, scale 0 to 100 (0 no effect, 100 complete control)
[7] = 250 g ai/ha, scale of 0 to 100, 0 is no effect, 100 is complete control
[8] = scale 0 to 100 (0 no effect, 100 complete control)
[9] = 62 g ai/ha, scale 0 to 100 (0 no effect, 100 complete control)

Compound	Plant response rating, Bermudagrass (bermudagrass; [2])	Plant response rating, Bermudagrass (bermudagrass; [3])	Plant response rating, Foxtail, Giant (giant foxtail; 62 g ai/ha, scale 0 to 100)	Plant response rating, Foxtail, Giant (giant foxtail; 250 g ai/ha, scale 0-100)	Plant response rating, Foxtail, Giant (giant foxtail; [5])	Plant response rating, Lambsquarters (lambsquarters; 62 g ai/ha, scale 0 to 100)	Plant response rating, Lambsquarters (lambsquarters; 250 g ai/ha, scale 0-100)	Plant response rating, Lambsquarters (lambsquarters; [5])	Plant response rating, Morningglory (morningglory; 62 g ai/ha, scale 0 to 100)	Plant response rating, Morningglory (morningglory; 250 g ai/ha, scale 0-100)	Plant response rating, Morningglory (morningglory; [5])	Plant response rating, Nightshade (eastern black nightshade; 62 g ai/ha, scale 0 to 100)	Plant response rating, Nightshade (eastern black nightshade; 250 g ai/ha, scale 0-100)	Plant response rating, Nightshade (eastern black nightshade; [5])	Plant response rating, Nutsedge, Yellow (yellow nutsedge; 62 g ai/ha, scale 0 to 100)	Plant response rating, Nutsedge, Yellow (yellow nutsedge; 250 g ai/ha, scale 0-100)	Plant response rating, Nutsedge, Yellow (yellow nutsedge; [5])	Plant response rating, Ragweed (common ragweed; 62 g ai/ha, scale 0 to 100)	Plant response rating, Ragweed (common ragweed; 250 g ai/ha, scale 0-100)	Plant response rating, Ragweed (common ragweed; [5])	other results
CCn1nc(C2(C)CC2)cc1C(=O)Nc1cc(C(=O)N(C)C)ccc1F [Compound 299]	100	100	100	100	100	100	100	100	5	100	100	100	100	100	40	60	80	100	100	100	Plant response rating, Bermudagrass (bermudagrass; 125 g ai/ha, scale 0 (no effect) to 100 (complete control), visual, 12 to 14 days, preemergence): 100; Bermudagrass plant response rating (bermudagrass; Preemergence, 500 g ai/ha, scale 0 to 100, 0 no effect, 100 complete control): 100; Plant response rating, Foxtail, Giant (giant foxtail; [4]): 100; Plant response rating, Lambsquarters (lambsquarters; [4]): 100; Plant response rating, Morningglory (morningglory; [4]): 75; Plant response rating, Nightshade (eastern black nightshade; [4]): 100; Plant response rating, Nutsedge, Yellow (yellow nutsedge; [4]): 50; Sedge, Umbrella plant response rating ([1]; 62 g ai/ha, scale 0 to 100): 85; Sedge, Umbrella plant response rating [1, 6]: 95; Sedge, Umbrella plant response rating [1, 7]: 95; Plant response rating, Sedge, Umbrella [1, 8]: 95; Barnyardgrass plant response rating (barnyardgrass; [9]): 85; Barnyardgrass plant response rating (barnyardgrass; [6]): 85; Barnyardgrass plant response rating (barnyardgrass; [7]): 95; Plant response rating, Barnyardgrass (barnyardgrass; [8]): 95
CCc1nn(C(C)(C)C)nc1C(=S)Nc1cccc(C(=S)N(C)C)c1 [Compound 396]	95	100	95	100	100	100	100	100	0	25	70	95	100	100	0	45	80	0	80	95	Plant response rating (0 = no effect, 100 = complete control), Bermudagrass (bermudagrass; 125 g ai/ha, preemergence): 100; Plant response rating, Bermudagrass (bermudagrass; 500 g ai/ha, scale 0 to 100 (0 no effect, 100 complete control), visual, 12 to 14 days, preemergence): 100; Plant response rating (0 = no effect, 100 = complete control), Foxtail, Giant (giant foxtail; 125 g ai/ha): 100; Plant response rating (0 = no effect, 100 = complete control), Lambsquarters (lambsquarters; 125 g ai/ha): 100; Plant response rating (0 = no effect, 100 = complete control), Morningglory (morningglory; 125 g ai/ha): 0; Plant response rating (0 = no effect, 100 = complete control), Nightshade (eastern black nightshade; 125 g ai/ha): 100; Plant response rating (0 = no effect, 100 = complete control), Nutsedge, Yellow (yellow nutsedge; 125 g ai/ha): 25; Plant response rating (0 = no effect, 100 = complete control), Ragweed (common ragweed; 125 g ai/ha): 0; Sedge, Umbrella plant response rating ([1]; 62 g ai/ha, scale 0 to 100): 70; Sedge, Umbrella plant response rating [1, 6]: 75; Sedge, Umbrella plant response rating [1, 7]: 85; Plant response rating, Sedge, Umbrella [1, 8]: 90; Barnyardgrass plant response rating (barnyardgrass; [9]): 65; Barnyardgrass plant response rating (barnyardgrass; [6]): 75; Barnyardgrass plant response rating (barnyardgrass; [7]): 75; Plant response rating, Barnyardgrass (barnyardgrass; [8]): 80
